The target in this test is T1, hKv3.1b (Homo sapiens, UniProt P48547).
T1 construct: expressed in transfected cells
T1 sequence (P48547 1-585 isoform P48547-2): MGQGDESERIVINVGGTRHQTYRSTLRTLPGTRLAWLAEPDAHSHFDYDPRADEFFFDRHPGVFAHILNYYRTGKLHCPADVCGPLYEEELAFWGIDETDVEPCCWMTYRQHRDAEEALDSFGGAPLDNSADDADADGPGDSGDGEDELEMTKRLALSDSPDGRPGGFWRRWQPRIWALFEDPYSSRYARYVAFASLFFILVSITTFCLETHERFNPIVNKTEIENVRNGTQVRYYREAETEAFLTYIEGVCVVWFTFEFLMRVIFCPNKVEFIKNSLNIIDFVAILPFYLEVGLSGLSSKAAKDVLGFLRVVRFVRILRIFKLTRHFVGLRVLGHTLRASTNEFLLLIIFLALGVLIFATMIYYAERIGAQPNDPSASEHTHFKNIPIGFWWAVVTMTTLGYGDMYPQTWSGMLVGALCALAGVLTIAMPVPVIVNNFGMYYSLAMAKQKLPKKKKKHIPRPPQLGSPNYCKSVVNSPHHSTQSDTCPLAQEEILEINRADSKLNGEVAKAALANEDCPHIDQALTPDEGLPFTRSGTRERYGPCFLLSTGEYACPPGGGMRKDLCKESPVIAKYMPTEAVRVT
The test is described as follows: Automated whole-cell patch-clamp (QPatch-16x) on HEK-293 cells stably expressing hKv3.1b: shift of voltage threshold for channel activation. In kind it is cell-based. To be noted: HEK-293 hKv3.1b; for ECdelta5mV: concentration needed to shift the threshold 5 mV, read out from fitted concentration response curve; for Max Delta threshold: maximum absolute shift of activation threshold to more hyperpolarized potentials at the tested concentrations (0.37, 1.11, 3.33, 10, 30 μM). Background: Patch clamp records ionic current or voltage across a cell membrane.

With `COc1ccc(S(=O)(=O)n2ccc(C(=O)NCc3ncn(C)n3)n2)cc1` [Compound 13, 1-(4-methoxybenzene-1-sulfonyl)-N-[(1-methyl-1H-1,2,4-triazol-3-yl)methyl]-1H-pyrazole-3-carboxamide], the ECdelta5mV worked out at 4 µM and the “Max Delta threshold” value is 16 mV.

Take `Cc1ccc(S(=O)(=O)n2ccc(C(=O)NCc3ncn(C)n3)n2)cc1` [Compound 60, 1-(4-methylbenzene-1-sulfonyl)-N-[(1-methyl-1H-1,2,4-triazol-3-yl)methyl]-1H-pyrazole-3-carboxamide]: the ECdelta5mV amounted to 2.9 µM and the “Max Delta threshold” value amounted to 18 mV.

Turning to `Cc1ccc(S(=O)(=O)n2ccc(C(=O)NCc3ccon3)n2)cc1` [Compound 58, 1-(4-methylbenzene-1-sulfonyl)-N-[(1,2-oxazol-3-yl)methyl]-1H-pyrazole-3-carboxamide], the ECdelta5mV was found to be 2 µM and the “Max Delta threshold” value is on record as 17 mV.

On to `Cc1cccc(S(=O)(=O)n2ccc(C(=O)NCc3cc(C)no3)n2)c1` [Compound 19, 1-(3-methylbenzene-1-sulfonyl)-N-[(3-methyl-1,2-oxazol-5-yl)methyl]-1H-pyrazole-3-carboxamide], for which the ECdelta5mV was 2.4 µM and the “Max Delta threshold” value is 17 mV.

For the compound `Cc1cnc(CNC(=O)c2ccn(S(=O)(=O)c3ccc(F)c(Cl)c3)n2)cn1` [Compound 69, 1-(3-chloro-4-fluoro-phenyl)sulfonyl-N-[(5-methylpyrazin-2-yl)methyl]pyrazole-3-carboxamide], the ECdelta5mV came to 4.6 µM and the “Max Delta threshold” value is 16 mV.

Turning to `Cc1ccc(CNC(=O)c2ccn(S(=O)(=O)c3cccc(C)c3)n2)nc1` [Compound 20, 1-(3-methylbenzene-1-sulfonyl)-N-[(5-methylpyridin-2-yl)methyl]-1H-pyrazole-3-carboxamide], the ECdelta5mV is 3.9 µM and the “Max Delta threshold” value was found to be 12 mV.

With `Cc1ccc(S(=O)(=O)n2ccc(C(=O)NCc3cnn(C)c3)n2)cc1` [Compound 62, 1-(4-methylbenzene-1-sulfonyl)-N-[(1-methyl-1H-pyrazol-4-yl)methyl]-1H-pyrazole-3-carboxamide], the ECdelta5mV is 1.6 µM and the “Max Delta threshold” value worked out at 25 mV.

With `Cc1cnc(CNC(=O)c2ccn(S(=O)(=O)c3cccc(Cl)c3)n2)cn1` [Compound 75, 1-(3-chlorophenyl)sulfonyl-N-[(5-methylpyrazin-2-yl)methyl]pyrazole-3-carboxamide], the ECdelta5mV came to 3.2 µM and the “Max Delta threshold” value was 17 mV.

For `Cc1ccc(CNC(=O)c2ccn(S(=O)(=O)c3ccc(F)cc3)n2)nc1` [Compound 34, 1-(4-fluorobenzene-1-sulfonyl)-N-[(5-methylpyridin-2-yl)methyl]-1H-pyrazole-3-carboxamide], the ECdelta5mV was 2.8 µM and the “Max Delta threshold” value is given as 17 mV.

`Cc1cccc(S(=O)(=O)n2ccc(C(=O)NCc3ccn(C)n3)n2)c1` [Compound 22, 1-(3-methylbenzene-1-sulfonyl)-N-[(1-methyl-1H-pyrazol-3-yl)methyl]-1H-pyrazole-3-carboxamide]: the ECdelta5mV was determined as 3.7 µM and the “Max Delta threshold” value amounted to 14 mV.

`Cc1ccc(S(=O)(=O)n2ccc(C(=O)NCc3cnoc3)n2)cc1` [Compound 51, 1-(4-methylbenzene-1-sulfonyl)-N-[(1,2-oxazol-4-yl)methyl]-1H-pyrazole-3-carboxamide]: the ECdelta5mV turned out to be 3.3 µM and the “Max Delta threshold” value is reported as 16 mV.

With `COc1ccc(S(=O)(=O)n2ccc(C(=O)NCc3nc(C)no3)n2)cc1` [Compound 42, 1-(4-methoxybenzene-1-sulfonyl)-N-[(3-methyl-1,2,4-oxadiazol-5-yl)methyl]-1H-pyrazole-3-carboxamide], the ECdelta5mV was found to be 2 µM and the “Max Delta threshold” value is 18 mV.

Turning to `Cc1ccc(CNC(=O)c2ccn(S(=O)(=O)c3ccccc3C)n2)nc1` [Compound 27, 1-(2-methylbenzene-1-sulfonyl)-N-[(5-methylpyridin-2-yl)methyl]-1H-pyrazole-3-carboxamide], the ECdelta5mV turned out to be 3.3 µM and the “Max Delta threshold” value is on record as 18 mV.

Take `COc1ccc(S(=O)(=O)n2ccc(C(=O)NCc3cnc(C)cn3)n2)c(F)c1` [Compound 68, 1-(2-fluoro-4-methoxy-phenyl)sulfonyl-N-[(5-methylpyrazin-2-yl)methyl]pyrazole-3-carboxamide]: the ECdelta5mV was 2.4 µM and the “Max Delta threshold” value worked out at 42 mV.

With `Cc1ccc(S(=O)(=O)n2ccc(C(=O)NCc3cn(C)cn3)n2)cc1` [Compound 53, 1-(4-methylbenzene-1-sulfonyl)-N-[(1-methyl-1H-imidazol-4-yl)methyl]-1H-pyrazole-3-carboxamide], the ECdelta5mV worked out at 1.9 µM and the “Max Delta threshold” value was found to be 20 mV.

With `COc1ccc(S(=O)(=O)n2ccc(C(=O)NCc3cnc(C)cn3)n2)cc1C` [Compound 1, 1-(4-methoxy-3-methylbenzene-1-sulfonyl)-N-[(5-methylpyrazin-2-yl)methyl]-1H-pyrazole-3-carboxamide], the ECdelta5mV worked out at 1.8 µM and the “Max Delta threshold” value was determined as 23 mV.

For the compound `Cc1cccc(S(=O)(=O)n2ccc(C(=O)NCc3ncc(C)o3)n2)c1` [Compound 18, 1-(3-methylbenzene-1-sulfonyl)-N-[(5-methyl-1,3-oxazol-2-yl)methyl]-1H-pyrazole-3-carboxamide], the ECdelta5mV was found to be 7.3 µM and the “Max Delta threshold” value is recorded as 13 mV.

With `Cc1cc(CNC(=O)c2ccn(S(=O)(=O)c3ccccc3)n2)on1` [Compound 14, 1-(benzenesulfonyl)-N-[(3-methyl-1,2-oxazol-5-yl)methyl]-1H-pyrazole-3-carboxamide], the ECdelta5mV was found to be 4.5 µM and the “Max Delta threshold” value was 14 mV.

For `Cc1cnc(CNC(=O)c2ccn(S(=O)(=O)c3c(C)cc(F)cc3C)n2)cn1` [Compound 83, 1-(4-fluoro-2,6-dimethyl-phenyl)sulfonyl-N-[(5-methylpyrazin-2-yl)methyl]pyrazole-3-carboxamide], the ECdelta5mV is 2.7 µM and the “Max Delta threshold” value is listed as 21 mV.

Consider `COc1ccc(S(=O)(=O)n2ccc(C(=O)NCc3ncc(C)o3)n2)cc1` [Compound 36, 1-(4-methoxybenzene-1-sulfonyl)-N-[(5-methyl-1,3-oxazol-2-yl)methyl]-1H-pyrazole-3-carboxamide], for which the ECdelta5mV worked out at 1.5 µM and the “Max Delta threshold” value worked out at 17 mV.

In the case of `COc1ccc(S(=O)(=O)n2ccc(C(=O)NCc3ccon3)n2)cc1` [Compound 8, 1-(4-methoxybenzene-1-sulfonyl)-N-[(1,2-oxazol-3-yl)methyl]-1H-pyrazole-3-carboxamide], the ECdelta5mV stood at 3.8 µM and the “Max Delta threshold” value was found to be 16 mV.

`Cc1cccc(S(=O)(=O)n2ccc(C(=O)NCc3cnn(C)c3)n2)c1` [Compound 21, 1-(3-methylbenzene-1-sulfonyl)-N-[(1-methyl-1H-pyrazol-4-yl)methyl]-1H-pyrazole-3-carboxamide]: the ECdelta5mV was 3.7 µM and the “Max Delta threshold” value was 16 mV.

The values above are taken from US20220220095A1, “N-((HETEROARYL)METHYL)-1-TOSYL-1H-PYRAZOLE-3-CARBOXAMIDE DERIVATIVES AS Kv3 POTASSIUM CHANNEL ACTIVATORS FOR TREATING NEUROLOGICAL AND [sequence] DISORDERS” (H. Lundbeck A/S, priority 2019, published 2022).
